Data on 23 compounds can be found in patent US20260124201A1, “CYCLOPENTANE COMPOUND” (Kissei Pharmaceutical Co., Ltd., priority 2022, published 2026).

In the assay the target is T1, human OX2R (Homo sapiens, UniProt O43614).
T1 construct: expressed in transfected cells
T1 sequence (O43614 1-444): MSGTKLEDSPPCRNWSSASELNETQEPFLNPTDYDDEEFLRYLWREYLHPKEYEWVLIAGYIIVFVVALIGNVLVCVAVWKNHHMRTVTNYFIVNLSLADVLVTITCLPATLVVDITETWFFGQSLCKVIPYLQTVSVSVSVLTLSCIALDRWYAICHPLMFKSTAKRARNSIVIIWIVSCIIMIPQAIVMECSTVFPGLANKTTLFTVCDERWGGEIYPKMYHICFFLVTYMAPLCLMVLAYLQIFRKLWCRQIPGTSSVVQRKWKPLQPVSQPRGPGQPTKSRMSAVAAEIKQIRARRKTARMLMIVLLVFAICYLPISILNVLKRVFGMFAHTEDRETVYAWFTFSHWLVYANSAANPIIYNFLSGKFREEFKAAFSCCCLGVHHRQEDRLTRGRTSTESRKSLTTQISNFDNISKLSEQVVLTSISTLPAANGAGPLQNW
The assay can be described thus: Measurement of OX2R agonist activity (intracellular calcium concentration change, Fluo4-AM, FDSS 7000). Conditions: compound concentration 10 μM; human OX2R-expressing CHO-K1 cells; 1 μM human orexin A peptide = 100%, medium alone = 0%. It is filed as cell-based. From the text:
The following abbreviations in the description, the figures and the tables have the following meanings, respectively. • AZADOL (registered trademark): 2-Hydroxy-2-azaadamantane • Boc2O: di-tert-butyl dicarbonate • DIPEA: N,N-diisopropylethylamine • DCM: dichloromethane • DMAP: 4-dimethylaminopyridine • DMF: N,N-dimethylformamide • DMSO: dimethylsulfoxide • Deoxo-Fluor: bis(2-methoxyethyl)-aminosulfur trifluoride • HATU: O-(7-azabenzotriazol-1-yl)-N,N,N′,N′-tetramethyluronium hexafluorophosphate • LDA: lithium diisopropylamide • MeCN: acetonitrile • Me4tBuXPhos: 2-di-tert-butylphosphino-3,4,5,6-tetramethyl-2′,4′,6′-triisopropyl-1,1′-biphenyl • MTBE: methyl tert-butyl ether • NMP: N-methylpyrrolidone • PdCl2(PPh3)2: dichlorobis(triphenylphosphine)palladium(II) • Pd(dba)2: bis(dibenzylideneacetone)palladium(0) • Pd2(dba)3: tris(dibenzylideneacetone)dipalladium(0) • Pd(dppf)Cl2: [1,1′-bis(diphenylphosphino)ferrocene]dichloropalladium(II) • Pd(PPh3)4: tetrakis(triphenylphosphine)palladium(0) • TEA: triethylamine • TFA: trifluoroacetic acid • THF: tetrahydrofuran • Xphos: 2-dicyclohexylphosphino-2′,4′,6′-triisopropylbiphenyl • Xphos Pd G3: (2-dicyclohexylphosphino-2′,4′,6′-triisopropyl-1,1′-biphenyl)[2-(2′-amino-1,1′-biphenyl)]palladium(II) methanesulfonic acid salt • 10% Pd/C: Palladium 10% on Carbon (wetted with ca. 55% water) • APS: aminopropylated silica gel • ODS: octadecyl-silylated silica gel • Method A: column chromatography with an aminopropylated silica gel column followed by a silica gel column • Chiral preparative column chromatography: chiral preparative column chromatography using YMC CHIRALART Cellulose-SB • Ref. No.: Reference Example Number • Str.: structural formula • Ex. No.: Example Number • Phys. data: physical data • ^1H-NMR: hydrogen nuclear magnetic resonance spectrum • CDCl3: chloroform-d1 • MS: mass spectrometry (The measured values in the tables were measured by electrospray ionization or multiionization using electrospray ionization-atmospheric pressure chemical ionization.) • Act.: activation rate of test substance at a compound concentration of 10 μM calculated by setting the fluorescence intensity obtained when human orexin A peptide was added at a concentration of 1 μM as 100% and the fluorescence intensity obtained when the medium alone was added as 0% • CHO: Chinese hamster ovary • HEPES: 2-[4-(2-hydroxyethyl)-1-piperazinyl]ethanesulfonic acid
A human OX2R sequence (Accession No. NM_001526.4) was inserted into the multiple cloning site of pcDNA3.4 (Life Technologies Japan Ltd.) to clone a plasmid vector for human OX2R expression. The plasmid was introduced into CHO-K1 cells using Lipofectamine 2000 (Life Technologies Japan Ltd.). Two days later, the transgenic CHO-K1 cells were passaged into 175T flasks and cultured selectively for 6 days. As a selection medium, Ham's F-12 Nutrient Mix (Life Technologies Japan Ltd.), containing Geneticin (registered trademark) (Life Technologies Japan Ltd.) at a final concentration of 1 mg/mL and inactivated fetal bovine serum (Biowest) at a final concentration of 10%, was used. After the selective culture, the cells were reseeded into 96-well plates, and a human OX2R-expressing cell line was obtained by limiting dilution.
The agonist effects of test substances on human OX2R were evaluated using the intracellular calcium concentration-change upon stimulation as an indicator. A day before measurement of the intracellular calcium concentrations, human OX2R-expressing cells suspended in a medium were seeded into 384-well plates at 5×10^3 cells/50 μL/well and cultured overnight in an incubator set at 37° C. and 5% CO2. After incubation, the medium was removed and replaced with 20 μL of a loading buffer. […]
In general terms: Calcium flux is commonly read through the fluorescence of an indicator in the cells.
For `CON(C)C(=O)[C@@]1(Cc2cccc(-c3ncc(Cl)cn3)c2)CC[C@H](NS(C)(=O)=O)C1` (relative stereo) [Example 15, (1R*,3S*)-1-(3-(5-Chloropyrimidin-2-yl)benzyl)-N-methoxy-N-methyl-3-(methylsulfonamido)cyclopentane-1-carboxamide], the “Act. (%): activation rate of test substance” value (from here on “Act. (%): activation rate”) worked out at 86%.
As for `CON(C)C(=O)[C@@]1(Cc2cccc(-c3cscn3)c2)CC[C@H](NS(C)(=O)=O)C1` (relative stereo) [Example 16], the “Act. (%): activation rate” value was determined as 91%.
Consider `CON(C)C(=O)[C@@]1(Cc2cccc(-c3ncc(F)cn3)c2)CC[C@H](NS(C)(=O)=O)C1` (relative stereo) [Example 17], for which the “Act. (%): activation rate” value is 99%.
`CON(C)C(=O)[C@@]1(Cc2cccc(-c3ncc(C)cn3)c2)CC[C@H](NS(C)(=O)=O)C1` (relative stereo) [Example 18]: the “Act. (%): activation rate” value stood at 87%.
For `CON(C)C(=O)[C@@]1(Cc2cccc(-c3ncc(C(F)(F)F)cn3)c2)CC[C@H](NS(C)(=O)=O)C1` (relative stereo) [Example 19], the “Act. (%): activation rate” value worked out at 45%.
`COc1cnc(-c2cccc(C[C@]3(C(=O)N(C)OC)CC[C@H](NS(C)(=O)=O)C3)c2)nc1` (relative stereo) [Example 20]: the “Act. (%): activation rate” value stood at 75%.
With `CON(C)C(=O)[C@@]1(Cc2cccc(-c3ncc(N(C)C)cn3)c2)CC[C@H](NS(C)(=O)=O)C1` (relative stereo) [Example 21, (1R*,3S*)-1-(3-(5-(Dimethylamino)pyrimidin-2-yl)benzyl)-N-methoxy-N-methyl-3-(methylsulfonamido)cyclopentane-1-carboxamide], the “Act. (%): activation rate” value is reported as 48%.
Regarding `CON(C)C(=O)[C@@]1(Cc2ccc(C)c(-c3ncc(F)cn3)c2)CC[C@H](NS(C)(=O)=O)C1` (relative stereo) [Example 22], the “Act. (%): activation rate” value came out at 87%.
As for `CON(C)C(=O)[C@@]1(Cc2ccc(F)c(-c3ncc(Cl)cn3)c2)CC[C@H](NS(C)(=O)=O)C1` (relative stereo) [Example 23], the “Act. (%): activation rate” value turned out to be 83%.
For the compound `CON(C)C(=O)[C@@]1(Cc2ccc(F)c(-c3ncc(C)cn3)c2)CC[C@H](NS(C)(=O)=O)C1` (relative stereo) [Example 24], the “Act. (%): activation rate” value was 83%.
As for `CON(C)C(=O)[C@@]1(Cc2ccc(C(F)(F)F)c(-c3ncc(F)cn3)c2)CC[C@H](NS(C)(=O)=O)C1` (relative stereo) [Example 25], the “Act. (%): activation rate” value was 63%.
Take `CON(C)C(=O)[C@@]1(Cc2cc(-c3ncccn3)ccc2F)CC[C@H](NS(C)(=O)=O)C1` (relative stereo) [Example 26]: the “Act. (%): activation rate” value stood at 99%.
For `CON(C)C(=O)[C@@]1(Cc2cccc(-n3nccn3)c2)CC[C@H](NS(C)(=O)=O)C1` (relative stereo) [Example 27, (1R*,3S*)-1-(3-(2H-1,2,3-Triazol-2-yl)benzyl)-N-methoxy-N-methyl-3-(methylsulfonamido)cyclopentane-1-carboxamide], the “Act. (%): activation rate” value was 87%.
Next, `CCN(C)C(=O)[C@@]1(Cc2cccc(-c3ncccn3)c2)CC[C@H](NS(C)(=O)=O)C1` (relative stereo) [Example 28, (1R*,3S*)—N-Ethyl-N-methyl-3-(methylsulfonamido)-1-(3-(pyrimidin-2-yl)benzyl)cyclopentane-1-carboxamide]: 92%; `CONC(=O)[C@@]1(Cc2cccc(-c3ncccn3)c2)CC[C@H](NS(C)(=O)=O)C1` (relative stereo) [Example 29, (1R*,3S*)—N-Methoxy-3-(methylsulfonamido)-1-(3-(pyrimidin-2-yl)benzyl)cyclopentane-1-carboxamide]: 47%; `CN(O)C(=O)[C@@]1(Cc2cccc(-c3ncccn3)c2)CC[C@H](NS(C)(=O)=O)C1` (relative stereo) [Example 30, (1R*,3S*)—N-Hydroxy-N-methyl-3-(methylsulfonamido)-1-(3-(pyrimidin-2-yl)benzyl)cyclopentane-1-carboxamide]: 48%.
In the case of `CON(C)C(=O)[C@@]1(Cc2cccc(-c3ncccn3)c2)CC[C@H](NS(=O)(=O)C2(C)CC2)C1` (relative stereo) [Example 31, (1R*,3S*)—N-Methoxy-N-methyl-3-((1-methylcyclopropane)-1-sulfonamido)-1-(3-(pyrimidin-2-yl)benzyl)cyclopentane-1-carboxamide], the “Act. (%): activation rate” value was 107%.
In the case of `CON(C)C(=O)[C@@]1(Cc2cccc(-c3ncccn3)c2)C[C@@H](F)[C@H](NS(C)(=O)=O)C1` (relative stereo) [Example 32, (1R*,3R*,4R*)-3-Fluoro-N-methoxy-N-methyl-4-(methylsulfonamido)-1-(3-(pyrimidin-2-yl)benzyl)cyclopentane-1-carboxamide], the “Act. (%): activation rate” value stood at 89%.
Next, `CON(C)C(=O)[C@@]1(Cc2cccc(-c3ncccn3)c2)C[C@H](F)[C@H](NS(C)(=O)=O)C1` (relative stereo) [Example 33]: 83%.
In the case of `CON(C)C(=O)[C@@]1(Cc2ccc(F)c(-c3ncc(F)cn3)c2)C[C@H](F)[C@H](NS(=O)(=O)N(C)C)C1` (relative stereo) [Example 34, (1R*,3R*,4S*)-3-((N,N-Dimethylsulfamoyl)amino)-4-fluoro-1-(4-fluoro-3-(5-fluoropyrimidin-2-yl)benzyl)-N-methoxy-N-methylcyclopentane-1-carboxamide], the “Act. (%): activation rate” value was found to be 90%.
On to `CON(C)C(=O)[C@@]1(Cc2cccc(-c3ncc(F)cn3)c2)C[C@H](F)[C@H](NS(=O)(=O)N(C)C)C1` (relative stereo) [Example 35, (1R*,3R*,4S*)-3-((N,N-Dimethylsulfamoyl)amino)-4-fluoro-1-(3-(5-fluoropyrimidin-2-yl)benzyl)-N-methoxy-N-methylcyclopentane-1-carboxamide], for which the “Act. (%): activation rate” value was found to be 92%.
For `CCS(=O)(=O)N[C@@H]1C[C@@](Cc2ccc(F)c(-c3ncc(F)cn3)c2)(C(=O)N(C)OC)C[C@@H]1F` (relative stereo) [Example 36, (1R*,3R*,4S*)-3-(Ethylsulfonamido)-4-fluoro-1-(4-fluoro-3-(5-fluoropyrimidin-2-yl)benzyl)-N-methoxy-N-methylcyclopentane-1-carboxamide], the “Act. (%): activation rate” value was determined as 84%.
Turning to `CON(C)C(=O)[C@@]1(Cc2cc(-c3ncc(F)cn3)ccc2F)C[C@H](F)[C@H](NS(C)(=O)=O)C1` (relative stereo) [Example 37, (1R*,3S*,4R*)-3-Fluoro-1-(2-fluoro-5-(5-fluoropyrimidin-2-yl)benzyl)-N-methoxy-N-methyl-4-(methylsulfonamido)cyclopentane-1-carboxamide], the “Act. (%): activation rate” value came to 90%.
